The nature of data set [1]: Aqueous solubility of the compound at pH 6.8. To be noted: aqueous medium.
For data set [2], the species on record is Mus musculus. The data set is described as follows: animal or person. To be noted: C57BL/6, po, read-out: INH.
For data set [3], the target named is Voltage-gated inwardly rectifying potassium channel KCNH2 (Homo sapiens, UniProt Q12809). The data set is described as follows: Inhibition of human ERG channel by automated Q-patch assay.
The test system of data set [4] is Mus musculus. The data set is described as follows: Antiangiogenic activity in po dosed C57BL/6 mouse laser-induced choroidal neovascularization assessed as inhibition of neovascular lesion formation administered qd for 6 days measured on day 7 by microscopic analysis. In kind it is functional. The following applies: C57BL/6, po.

≈ marks a conversion by molar mass, not a printed value. A value given as a limit tells only on which side of the number the result lay.

Voltage-gated inwardly rectifying potassium channel KCNH2, sequence (Q12809 whole entry): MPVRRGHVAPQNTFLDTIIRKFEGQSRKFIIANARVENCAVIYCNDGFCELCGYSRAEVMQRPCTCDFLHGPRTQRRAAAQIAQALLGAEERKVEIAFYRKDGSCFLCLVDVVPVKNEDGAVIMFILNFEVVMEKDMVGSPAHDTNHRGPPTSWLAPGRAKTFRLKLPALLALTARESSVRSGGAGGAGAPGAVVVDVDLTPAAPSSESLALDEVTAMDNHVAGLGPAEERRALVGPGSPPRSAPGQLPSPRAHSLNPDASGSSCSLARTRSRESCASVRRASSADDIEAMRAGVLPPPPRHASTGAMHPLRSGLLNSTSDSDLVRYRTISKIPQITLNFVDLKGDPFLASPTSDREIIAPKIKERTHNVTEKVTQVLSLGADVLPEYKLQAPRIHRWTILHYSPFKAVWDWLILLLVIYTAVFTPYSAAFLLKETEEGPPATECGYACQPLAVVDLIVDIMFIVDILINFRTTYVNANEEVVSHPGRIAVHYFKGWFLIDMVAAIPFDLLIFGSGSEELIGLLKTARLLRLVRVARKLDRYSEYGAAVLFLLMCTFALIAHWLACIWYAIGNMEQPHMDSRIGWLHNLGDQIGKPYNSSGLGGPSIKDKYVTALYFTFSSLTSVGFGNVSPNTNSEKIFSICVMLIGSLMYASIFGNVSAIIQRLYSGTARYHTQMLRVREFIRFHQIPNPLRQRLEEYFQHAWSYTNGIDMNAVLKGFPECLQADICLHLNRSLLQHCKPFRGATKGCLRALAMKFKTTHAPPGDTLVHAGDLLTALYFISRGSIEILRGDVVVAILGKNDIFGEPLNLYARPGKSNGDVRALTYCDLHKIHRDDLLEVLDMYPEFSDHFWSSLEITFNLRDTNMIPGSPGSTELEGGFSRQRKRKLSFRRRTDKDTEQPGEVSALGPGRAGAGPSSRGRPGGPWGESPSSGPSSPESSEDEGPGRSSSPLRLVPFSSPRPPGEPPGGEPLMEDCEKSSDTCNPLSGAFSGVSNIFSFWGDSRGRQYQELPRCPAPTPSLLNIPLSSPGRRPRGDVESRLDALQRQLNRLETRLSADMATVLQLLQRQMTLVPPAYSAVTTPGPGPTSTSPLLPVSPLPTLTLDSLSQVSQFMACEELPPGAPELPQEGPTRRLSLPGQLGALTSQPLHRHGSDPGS

For the compound `CC(C)(C)c1cc(NC(=O)n2ccc3cc(Oc4ncnc5c4CNC5)ccc32)no1`, the solubility in data set [1] was 20 µM (≈ 8.37 µg/mL). Further, in the data set filed under Mus musculus [2], the inhibition in vivo at 10 mg/kg is 83%.

`CCN1CCc2c(ncnc2Oc2ccc3c(ccn3C(=O)Nc3cccc(C(F)(F)F)c3)c2)C1`: the solubility in data set [1] was less than 5 µM. Besides, the inhibition in vivo at 10 mg/kg in the data set filed under Mus musculus [2] is 81%.

For the compound `CC(C)c1cc(NC(=O)n2ccc3cc(Oc4ncnc5c4CCNC5)ccc32)n[nH]1`, the concentration in solution in data set [1] (solubility) was 833 µM (≈ 348 µg/mL). Further, the inhibition in vivo at 10 mg/kg in the data set filed under Mus musculus [2] came out at 0%.

`CC(=O)N1CCc2c(ncnc2Oc2ccc3c(ccn3C(=O)Nc3cccc(C(F)(F)F)c3)c2)C1`: in the data set listed under Mus musculus [2], the inhibition in vivo at 10 mg/kg came to 0%. Same read-out and setting: the result for `C[C@@H]1NCc2ncnc(Oc3ccc4c(ccn4C(=O)Nc4cc(C(C)(C)C)on4)c3)c21` reads 33%; that for `CNCc1cc(Oc2ccc3c(ccn3C(=O)Nc3ccc(F)c(C(F)(F)F)c3)c2)ncn1`, 92%. For `CC(C)(C)c1cc(NC(=O)n2ccc3cc(Oc4ncnc5c4CCNC5)ccc32)no1`, in data set [1], the solubility worked out at 167 µM (≈ 72.2 µg/mL). In data set [3], this compound displayed a half-maximal inhibitory concentration (IC50) of 7 µM. Further, in the data set listed under Mus musculus [2], the inhibition in vivo at 10 mg/kg was found to be 83%. Regarding `C[C@@H]1Cc2c(ncnc2Oc2ccc3c(ccn3C(=O)Nc3cc(C4(C)CC4)[nH]n3)c2)CN1`, the inhibition in vivo at 10 mg/kg in the data set listed under Mus musculus [2] came to 48%. For the compound `O=C(Nc1cccc(C(F)(F)F)c1)n1ccc2cc(Oc3ncnc4c3CNCC4)ccc21`, the inhibition in vivo at 10 mg/kg in the data set listed under Mus musculus [2] was 0%. In data set [1], `Nc1cc(Oc2ccc3c(ccn3C(=O)Nc3cccc(C(F)(F)F)c3)c2)ncn1` showed a solubility of less than 5 µM. Besides, the inhibition in vivo at 10 mg/kg in the data set listed under Mus musculus [2] worked out at 44%. Consider `CC1(c2cc(NC(=O)n3ccc4cc(Oc5ncnc6c5CNC6)ccc43)no2)CC1`, for which the inhibition in vivo at 10 mg/kg in the data set filed under Mus musculus [2] was determined as 90%. The same measure, in the same setting: the result for `O=C(Nc1cccc(C(F)(F)F)c1)n1ccc2cc(Oc3cc(CO)ncn3)ccc21` reads 45%; that for `C[C@H]1NCc2ncnc(Oc3ccc4c(ccn4C(=O)Nc4cccc(C(F)(F)F)c4)c3)c21`, 0%; that for `C[C@@H]1Cc2c(ncnc2Oc2ccc3c(ccn3C(=O)Nc3cccc(C(F)(F)F)c3)c2)CN1`, 58%.

In the case of `CC1(c2cc(NC(=O)n3ccc4cc(Oc5ncnc6c5CNC6)ccc43)n[nH]2)CC1`, the solubility in data set [1] worked out at 489 µM (≈ 203 µg/mL). Further, in the data set listed under Mus musculus [2], the inhibition in vivo at 10 mg/kg amounted to 43%. The compound `Cc1cncc(NC(=O)n2ccc3cc(Oc4ncnc5c4CCNC5)ccc32)c1` returned a solubility in data set [1] of 190 µM (≈ 76.1 µg/mL). Compound `CNCc1cc(Oc2ccc3c(ccn3C(=O)Nc3cccc(C(F)(F)F)c3)c2)ncn1` yielded a solubility in data set [1] of 64 µM (≈ 28.3 µg/mL). Also, the inhibition in vivo at 10 mg/kg in the data set listed under Mus musculus [2] was found to be 67%. For `CC(C)(C)c1cc(NC(=O)n2ccc3cc(Oc4ncnc5c4CCNC5)ccc32)n[nH]1`, in that order: 682 µM (≈ 294 µg/mL) and 0%. Regarding `C[C@@H]1NCc2ncnc(Oc3ccc4c(ccn4C(=O)Nc4cccc(C(F)(F)F)c4)c3)c21`, in the data set listed under Mus musculus [2], the inhibition in vivo at 10 mg/kg is 41%. On to `O=C(Nc1cccc(C(F)(F)F)c1)n1ccc2cc(Oc3ncnc4c3CCNC4)ccc21`, for which the solubility in data set [1] stood at 84 µM (≈ 38.1 µg/mL). Besides, the inhibition in vivo at 10 mg/kg in the data set filed under Mus musculus [2] was found to be 87%. `C[C@H]1Cc2c(ncnc2Oc2ccc3c(ccn3C(=O)Nc3cccc(C(F)(F)F)c3)c2)CN1`: in the data set on Mus musculus [4], the ED50 turned out to be 3.6 mg/kg and the ED90 was 8.5 mg/kg. Further, the inhibition in vivo at 10 mg/kg in the data set filed under Mus musculus [2] came to 96%. In data set [1], `CC(C)c1cc(NC(=O)n2ccc3cc(Oc4ncnc5c4CNC5)ccc32)no1` returned a solubility of 37 µM (≈ 15 µg/mL). For the same compound, the inhibition in vivo at 10 mg/kg in the data set listed under Mus musculus [2] was determined as 96%. With `O=C(Nc1cccc(C(F)(F)F)c1)n1ccc2cc(Oc3ncnc4c3CNC4)ccc21`, in the data set on Mus musculus [4], the 50% effective dose (ED50) came out at 6.9 mg/kg and the ED90 is 31 mg/kg. For the same compound, in the data set filed under Mus musculus [2], the inhibition in vivo at 10 mg/kg worked out at 68%. Compound `CC(C)(C)c1cc(NC(=O)n2ccc3cc(Oc4ncnc5c4CNC5)ccc32)on1` came in with a solubility in data set [1] of 232 µM (≈ 97.1 µg/mL). In addition, in the data set listed under Mus musculus [2], the inhibition in vivo at 10 mg/kg is 58%. As for `C[C@H]1Cc2c(ncnc2Oc2ccc3c(ccn3C(=O)Nc3cc(C(C)(C)C)on3)c2)CN1`, in the data set listed under Mus musculus [2], the inhibition in vivo at 10 mg/kg amounted to 96%.
